We go through 11 compounds from EP4534528A1, “NOVEL SULFANONE DERIVATIVE OR PHARMACEUTICALLY ACCEPTABLE SALT THEREOF, AND USE THEREOF” (Korea Institute of Science and Technology, priority 2022, dated 2023).

A short description of one data set: in vitro. Type of data set: in vitro ADME, Human. The following applies: for remaining at 0.5 h, 1 µM: human, pH 6.4, liver microsomes 0.5 mg/mL, 30 minutes at 37°C. A general note: Microsomes from liver hold many membrane-bound enzymes, among them those of drug oxidation.
Data set [1] is described as follows: Metabolic stability in liver microsomes. In kind it is in vitro ADME. The settings on record: mouse, pH 6.4, 30 minutes at 37°C.
Data set [2] is described as follows: Metabolic stability in liver microsomes. Type of data set: in vitro ADME. The following applies: rat, pH 6.4, 30 minutes at 37°C. Here is the method: Then, an NADPH regeneration system solution was added thereto and the mixed solution was incubated at 37°C for 30 minutes. […]
A further data set has as its system NO (nitric oxide). The data set is described as follows: NO (nitric oxide) inhibitory activity in LPS-treated BV-2 microglial cells. In kind it is cell-based, mouse. The following applies: for activity at 0.1 µM / activity at 1 µM / activity at 10 µM: Mus musculus; for activity at 0.1 µM: read-out: Amount of NO (% of control) 0.1 µM; for activity at 1 µM: read-out: Amount of NO (% of control) 1 µM; for activity at 10 µM: read-out: Amount of NO (% of control) 10 µM.

A further data set has as its system Nrf2. In words: Nrf2 functional cell-based assay (DiscoveRx). The following applies: U2OS cells, incubated for 6 hours, luminescence; read-out: Nrf2 activation EC50.
For the next data set, the system named is U2OS cells. The settings on record: known from the literature; cited from earlier work.
For data set [3] the following is noted: not told; cited from earlier work.
For data set [4] the following is noted: background statement; cited from earlier work.
The mark [5] stands for this setting: 10 µM compound, BV-2 cells, LPS 1 µg/ml, 24 hours.

Structures can show the parent of a compound that is named as a salt. Where two headings read alike, the source gives them in different places.

One may read the amount remaining as what is left of the initial amount, in per cent. A higher amount remaining goes with less turnover. As for `O=S(=O)(/C=C/c1ncccc1Cl)c1ccccc1Cl`, the results for the fraction remaining at 0.5 h, 1 µM (in “in vitro”; in data set [1]) were 66% and 4.5%, respectively.
As for `O=S(=O)(/C=C/c1ncccc1Cl)c1ccccc1F`, the amount remaining at 0.5 h, 1 µM came to 72% in the data set “in vitro”, 19% in data set [1] and 23% in data set [2].
In the case of `COc1ccc(S(=N)(=O)/C=C/c2ccccn2)cc1` (stereo not drawn) [Compound 1-2, (E)-imino(4-methoxyphenyl)(2-(pyridin-2-yl)vinyl)-λ^6-sulfanone], the “amount of drug remaining after incubation with microsomes (in words)” value in “in vitro” (30 minutes) is “remained at a high concentration”. The amount remaining at 0.5 h, 1 µM in the data set “in vitro” came out at 76%; in data set [1], 59%.
For `N=S(=O)(/C=C/c1ncccc1F)c1ccccc1Cl` (stereo not drawn) [Compound 1-3, (E)-(2-chlorophenyl)(2-(3-fluoropyridin-2-yl)vinyl)(imino)-λ^6-sulfanone], in the data set on NO (nitric oxide) (BV-2, 24 h), the activity at 0.1 µM came out at 90.9%, the activity at 1 µM stood at 51.4% and the activity at 10 µM was below 3%.
For `COc1cccc(S(=N)(=O)/C=C/c2ncccc2F)c1` (stereo not drawn) [Compound 1-7, (E)-(2-(3-fluoropyridin-2-yl)vinyl)(imino)(3-methoxyphenyl)-λ^6-sulfanone], in the data set with NO (nitric oxide) (BV-2, 24 h), the activity at 10 µM was found to be 1.48%.
`N=S(=O)(/C=C/c1cccnc1)c1ccccc1Cl` (stereo not drawn) [Compound 1-12, (E)-(2-chlorophenyl)(imino)(2-(pyridin-3-yl)vinyl)-λ^6-sulfanone]: the activity at 10 µM with NO (nitric oxide) (setting [5]) came to 24.8%.
A word on the EC50: it is the concentration at which the effect is half-maximal. Take `C[Si](C)(C)N=S(=O)(/C=C/c1ccccc1Cl)c1ccncc1F` (stereo not drawn) [Compound 1-46, (E)-(2-chlorostyryl)(3-fluoropyridin-4-yl)((trimethylsilyl)imino)-λ^6-sulfanone]: the EC50 with Nrf2 stood at 0.12 µM.
On the same count and under the same terms, in the case of `COc1ccccc1S(=O)(/C=C/c1ccccc1Cl)=NC#N` (stereo not drawn) [Compound 1-57, (E)-N-((2-chlorostyryl)(2-methoxyphenyl)(oxo)-λ^6-sulfanylidene)cyanamide] it was 0.075 µM; in that of `COC(=O)/C=C/C(=O)OC` [DMF, Dimethyl fumarate], 4.33 µM.
`C[S+]([O-])CCCCN=C=S` (stereo not drawn) [Sulforaphane, 1-isothiocyanato-4-methylsulfinylbutane]: in the data set with U2OS cells, the “concentrations at which high toxicity is exhibited” value is recorded as at least 5 µM. Moreover, the blood-brain barrier permeability result in data set [3] is listed as “very low”. In addition, in data set [4], the “time until it disappears when administered to the body” value is at most 1 h. Moreover, in the data set on NO (nitric oxide) (0.1 µM compound, BV-2 cells, LPS 1 µg/ml, 24 hours), the activity at 0.1 µM came to 107%. The activity at 1 µM with NO (nitric oxide) (1 µM compound, BV-2 cells, LPS 1 µg/ml, 24 hours) was 79.9%. Besides, the activity at 10 µM in the data set with NO (nitric oxide) (setting [5]) is 14.9%.
Turning to “(E)-(2-chlorophenyl)(imino)(2-(2,4,6-trichloropyrimidin-5-yl)vinyl)-λ^6-sulfanone [Compound 1-14]”, the 50% effective concentration (EC50) with Nrf2 worked out at 3.28 µM. In addition, the “Amount of NO (% of control) 10 µM” value in the data set with NO (nitric oxide) (setting [5]) is listed as < 3.00 % of control.
